In patent US5298502A, “Method and composition for photodynamic treatment and detection of tumors” (priority 1991, dated 1994):

Tests used:
mosquito larvae = assay: Insecticidal test against mosquito larvae; conditions: in vivo
[1] = system: DBA/2 Ha mice with SMT-F subcutaneous tumors; assay: Proto IX content of tissues of tumor-bearing mice fed the agent (Example 6); type: in vivo; conditions: for concentration of Proto IX in tissue, Adrenal / concentration of Proto IX in tissue, Intestine / concentration of Proto IX in tissue, Kidneys / concentration of Proto IX in tissue, Liver / concentration of Proto IX in tissue, Tumor / Proto IX Mean Cps per gram, Intestine: 2000 ppm in feed; for Proto IX Mean Cps per gram, Adrenal / Proto IX Mean Cps per gram, Kidneys / Proto IX Mean Cps per gram, Liver / Proto IX Mean Cps per gram, Tumor / Weight of Tumor as excised: 2000 ppm in feed Days 2-10, sacrificed Day 10 (6j Day 7)
Experimental: In this Example the enzyme-inhibiting agents were added to the feed of tumor-bearing mice; for some of the mice, used as a control, no agent was added to the feed. The mice were then sacrificed and their kidneys, intestines, adrenal glands, liver and tumor were removed and analyzed for their content of Proto IX. The following enzyme-inhibiting agents were employed: [drawing 10]
More particularly, the mice were DBA/2 Ha mice which had been injected with SMT-F subcutaneous tumors on Day 0 in the right shoulder. The mice, individually housed, received untreated Purina Rodent Chow 5001 Mash on Day 1; thereafter on Days 2 through 10 the mice received the same Mash treated with 2000 ppm of the inhibiting agent being tested (or, for the controls, the same untreated Mash). The treatment of the Mash was effected by blending it with a small amount of an acetone solution of the agent to be tested. The mice were then sacrificed on Day 10, except for the mouse treated with the agent designated as 6j; the latter was sacrificed on Day 7. The tissues were refrigerated at 4° C. overnight, then blotted dry, and the fresh weight of each tissue sample was recorded. The tissues were then homogenized in 5 mL, or lo mL in the cases of intestines and liver, of acetone-0.1 N NH4 OH (9:I, v/v). The homogenates were then centrifuged at 1500 g and the supernatants were analyzed on a SPEX FAII2 spectrofluorometer; excitation 400 nm, emission 630 nm wavelengths, the optima for Proto IX. Proto IX accumulation was determined as CPS (fluorescent counts per second emitted) per gram of tissue. The results are tabulated below (results are averages for two mice for each treatment, except for treatments with agents 6f, 6h, 6i and 6j in each of which only one mouse was treated): […]

HeLa cells [2] = assay: Proto IX production in HeLa cells, extract of cells alone (Example 7); type: cell-based; conditions: Homo sapiens, 100 uM agent, first formula (background-subtracted), read-out: increase in the amount of Proto IX relative to the control
Experimental: In a series of experiments along the lines of Examples 1 and 2, cultures of HeLa cells were incubated in the presence of 100 uM of various treating agents, listed below. The percentage given, next to each treating agent, indicates the increase in the amount of Proto IX produced in the presence of that treating agent relative to the amount produced by the control in the same experiment.
As in Examples 1 and 2, the data for this Example 7 were based on measurements of fluorescence (e.g. in counts per second, "cps"). In this Example, however, the measurements were made on an extract of the cells alone (in contrast to Examples 1 and 2 in which the disrupted cells and culture medium together were extracted), the fluorometric medium was the one described in Example 5 (containing 1% Tween-20, 50 mM Tris-HCl, 1 mM EDTA and 1 mM dithioerythritol, pH 8.5), and a cps measurement of the fluorometric medium per se was also made. In calculating the foregoing data for this Example, the following formula was used to calculate the percentage increases: [formula] where Ca is the counts per second for the sample resulting from treatment with the agent, Cc is the counts per second for the control sample, and Cm is the counts per second for the fluorometric medium per se (i.e. the background fluoroescence). On reviewing the data it was observed that Cc -Cm for this set of experiments was […] compared to Cm; for instance, individual measured values were 49025 and 52069 for Cc and 4295 for Cm. […] Accordingly, the data were recalculated using the formula: [formula] with the following results: 6a 336%; 5b 148%; 6c 154%; 6d 510%; 6e 320%; 6f 280%; 6g 329%; 6h 178%; 6i 171%; 6j 185%; 7a 118%; 7b 142%; 7c 103%; 7d 128%; 7e 173%; 7f 118%; 7q 155%; 7h 118%.

HeLa cells [3] = assay: Proto IX in HeLa cells and culture medium, cell growth observations (Example 8); type: cell-based, human; conditions: 100 μM agent
Experimental: In a manner similar to Examples 1 and 2, cultures of HeLa cells were incubated in the presence of 100 μM of various treating agents, listed below. The agent was added in dilute solution in dimethylsulfoxide (DMSO),and the controls contained 0.2% DMSO v/v. After such incubation the culture medium was poured off, removing it from the cells, the cells were loosened from the culture flasks by addition of 0.25% W/v trypsin Which remained in contact With the cells for 20 minutes at 37° C., after which a fluorometric medium was added to the flask. The fluorometric medium was the same as that described in Example 7 except that its pH was 6.5; this medium also acted as an extractant. The resulting extract was analyzed for proto IX content. The separated culture medium was also analyzed fluorometrically for Proto IX content. The pairs of percentages given, next to each treating agent, indicate the amount of Proto IX produced in the presence of that treating agent relative to the amount produced by the control in the same experiment; the first number of each pair relates to the concentration of Proto IX in the culture medium and the second number relates to the concentration in the cells. [drawing 12]

chondrosarcoma = assay: Photodynamic treatment of chondrosarcoma in rats fed the agent (Example 9); type: in vivo, Sprague-Dawley rats; conditions: three rats, 2000 ppm in feed for 6 days, 630 nm light 270 J/cm^2
Experimental: Specifically, three Sprague-Dawley rats of average weight 120 g were placed on a diet of feed containing 2000 ppm of the agent for a period of 6 days. On day 3, chondrosarcoma was implanted into the right hind limb of each rat by injecting 0.3 mL of a suspension of the tumor cells (about one million tumor cells). On day 6 the right hind limb of each rat was shaven and depilated, the size of each tumor was measured, and the tumor area and surrounding skin were then exposed to non-thermal doses of 630 nm light for a total of 270 J/cm^2.
In another set of experiments, 20 of the rats were placed on the same diet as above (i.e. feed containing 2000 ppm of agent), provided ad libitum, for 10 days before the treatment with the light, and the injection of the tumor cell suspension was made after the animals had been on the diet for 7 days. Such an injection causes the formation of a tumor having a well defined vascular network within 1 to 2 days. At the time of the treatment with light the tumors had diameters of 5-8 mm and were free of evident necrosis.

[4] = samples diluted with 3 parts basic acetone to one part sample

SMILES	activity against mosquito larvae (mosquito larvae)	concentration of Proto IX in tissue, Adrenal [1]	concentration of Proto IX in tissue, Intestine [1]	concentration of Proto IX in tissue, Kidneys [1]	concentration of Proto IX in tissue, Liver [1]	concentration of Proto IX in tissue, Tumor [1]	Proto IX Mean Cps per gram, Adrenal [1] [Cps per gram × 10^3]	Proto IX Mean Cps per gram, Kidneys [1] [Cps per gram × 10^3]	Proto IX Mean Cps per gram, Liver [1] [Cps per gram × 10^3]	Proto IX Mean Cps per gram, Tumor [1] [Cps per gram × 10^3]	Weight of Tumor as excised [1] [mg]	Proto IX Mean Cps per gram, Intestine [1, 4] [Cps per gram × 10^3]	activation at 100 µM (HeLa cells [2]) [%]	Proto IX Mean Cps per gram, Intestine ([1]; undiluted samples (6j Day 7)) [Cps per gram × 10^3]	activity in the test in Example 8 (Proto IX production) (HeLa cells [3])	tumor regression on the day after light treatment (chondrosarcoma)
CCOC(=O)C(Cl)Cc1cc(-n2nc(C)n(C(F)F)c2=O)c(F)cc1Cl (centres unmarked)	active															
CCOC(=O)C(C)Oc1ccc(Oc2cc(-n3nc(C)n(C(F)F)c3=O)c(F)cc2Cl)cc1 (centres unmarked) [Agent 6a]	active	60 ug of Proto IX per gram of tis	54 ug of Proto IX per gram of tis	99 ug of Proto IX per gram of tis	39 ug of Proto IX per gram of tis	11 ug of Proto IX per gram of tis	6572	10817	4291	1203	143	5870	337			
COC(=O)c1cc(Oc2ccc(C(F)(F)F)cc2Cl)ccc1[N+](=O)[O-] [Agent 6b]		23 ug of Proto IX per gram of tis	51 ug of Proto IX per gram of tis	22 ug of Proto IX per gram of tis	12 ug of Proto IX per gram of tis	14 ug of Proto IX per gram of tis	2529	2441	1261	1520	90	5577	366			
CCCn1c(=O)ccc2cc(F)c(-n3nc(C)n(C(F)F)c3=O)cc21 [Agent 6f]		51 ug of Proto IX per gram of tis	11 ug of Proto IX per gram of tis	6 ug of Proto IX per gram of tis	11 ug of Proto IX per gram of tis	4 ug of Proto IX per gram of tis	5611	661	1170	449	69		280	1157		
C#CCN1C(=O)C(F)Oc2cc(F)c(-n3nc(C)n(C(F)F)c3=O)cc21 (centres unmarked) [Agent 6g]		18 ug of Proto IX per gram of tis	4 ug of Proto IX per gram of tis	6 ug of Proto IX per gram of tis	7 ug of Proto IX per gram of tis	2 ug of Proto IX per gram of tis	1984	606	803	166	250		326	466		
CC(C)Oc1cc(-n2c(=O)n3n(c2=O)CCCC3)c(F)cc1Cl [Agent 6h]		21 ug of Proto IX per gram of tis	5 ug of Proto IX per gram of tis	5 ug of Proto IX per gram of tis	8 ug of Proto IX per gram of tis	3 ug of Proto IX per gram of tis	2259	585	914	298	192		431	584		
C#CCN1C(=O)COc2cc(F)c(-n3nc4c(c3Cl)CCCC4)cc21 [Agent 6i]		337 ug of Proto IX per gram of tis	32 ug of Proto IX per gram of tis	37 ug of Proto IX per gram of tis	14 ug of Proto IX per gram of tis	9 ug of Proto IX per gram of tis	36940	4014	1510	932	20		544	3454		
C#CCN1C(=O)COc2cc(F)c(N=c3sc(=S)n4n3CCCC4)cc21 [Agent 6j]		4 ug of Proto IX per gram of tis	5 ug of Proto IX per gram of tis	3 ug of Proto IX per gram of tis	5 ug of Proto IX per gram of tis	11 ug of Proto IX per gram of tis	491	315	538	1251	11		469	572		
CS(=O)(=O)NC(=O)c1cc(Oc2ccc(C(F)(F)F)cc2Cl)ccc1[N+](=O)[O-] [Compound 8c]															much less active than compound 6c	did not produce any regression of the tumors
CCS(=O)(=O)Nc1cc(-n2nnn(CCCF)c2=O)c(F)cc1Cl [Compound 8h]	active															
